Assay results taken from patent US12678488B2, “Batch management method for improving farrowing rate or number of piglets born alive in swine” (priority 2024, dated 2026).
Marks after values point to notes of the source that are not given here.

System: Landrace x Large White reserve sows
Test: Heat detection: estrus rate and estrus time in gilts, different doses (Example 2)
Format: in vivo, pigs
Settings: gilts
Text: Landrace x Large White reserve sows, about 230 days old, were randomly divided into a batch farrowing with FTAI and batch farrowing with FTAI combined with different doses of 1-[bis(4-cyanophenyl)methyl]-1,2,4-triazole groups, and during the experiment, the experimental sows in each group were fed regularly and gained free access to water according to the requirements of feeding management in the farm.
Referring to the dosage of 1-[bis(4-cyanophenyl)methyl]-1,2,4-triazole in clinical medicine and using standard weight-dosage conversion, the recommended dosage of 1-[bis(4-cyanophenyl)methyl]-1,2,4-triazole for sows was 50-150 μg/kg·BW/day, orally for consecutive 5 days, as derived by conversion. In addition, the applicant previously studied uniparous cows, and in the ovulation induction scheme, the reference dosage of 1-[bis(4-cyanophenyl)methyl]-1,2,4-triazole was 60-200 μg/kg·BW, administered in a single dose; furthermore, by means of conversion in conjunction with the dosage for model animals (mice) previously in the laboratory, various dosages were designed. The treatment methods of hormones and drugs for sows in each group were as follows: • batch farrowing with FTAI: the sows were fed with an altrenogest oral solution at 20 mg/animal at the same time every day, for 18 days; PMSG at 1000 IU/animal was injected intramuscularly 42 h after the last feeding with altrenogest, GnRH at 100 μg/animal was injected intramuscularly 80 h after the injection of PMSG, a first timed insemination was performed 24 h after the injection of GnRH, and a second timed insemination was performed 16 h after the first insemination.
(§1) Treatment group 1: the hormone treatment and mating schemes for gilts were the same as FTAI. The difference lay in that PMSG at 1000 IU/gilt was injected intramuscularly 42 h after the last feeding with altrenogest, and 1-[bis(4-cyanophenyl)methyl]-1,2,4-triazole at 12 μg/kg·BW/day was administered orally 8 h after the injection of PMSG, for 1 day.
as §1, with “2:” for “1:”, “2 days.” for “1 day.”
as §1, with “3:” for “1:”, “20” for “12”
as §1, with “4:” for “1:”, “sows” for “gilts”, “1-[bis (4-cyanophenyl)methyl]-1,2,4-triazole” for “1-[bis(4-cyanophenyl)methyl]-1,2,4-triazole”, “20” for “12”, “2 days.” for “1 day.”
as §1, with “5:” for “1:”, “IU/animal” for “IU/gilt”, “20” for “12”, “3 days.” for “1 day.”
as §1, with “6:” for “1:”, “IU/animal” for “IU/gilt”, “20” for “12”, “5 days.” for “1 day.”
Treatment group 7: the hormone treatment and mating schemes for gilts were the same as FTAI. […]

[1] = Example 2 Treatment group 1: 12 μg/kg·BW/day orally, 1 day
[2] = Example 2 Treatment group 2: 12 μg/kg·BW/day orally, 2 days
[3] = Example 2 Treatment group 3: 20 μg/kg·BW/day orally, 1 day
[4] = Example 2 Treatment group 4: 20 μg/kg·BW/day orally, 2 days
[5] = Example 2 Treatment group 5: 20 μg/kg·BW/day orally, 3 days
[6] = Example 2 Treatment group 6: 20 μg/kg·BW/day orally, 5 days
[7] = Example 2 Treatment group 7: 40 μg/kg·BW/day orally, 1 day
[8] = Example 2 Treatment group 8: 40 μg/kg·BW/day orally, 5 days
[9] = Example 2 Treatment group 9: 80 μg/kg·BW/day orally, 5 days
[10] = Example 2 Treatment group 10: 160 μg/kg·BW/day orally, 5 days

N#Cc1ccc(C(c2ccc(C#N)cc2)n2cncn2)cc1 [1-[bis(4-cyanophenyl)methyl]-1,2,4-triazole]
Estrus number [1]: 27
Estrus rate (%) [1]: 90.00^a %
Interval from stopping taking Altrenogest to estrus (days) [1]: 6.13 ± 0.12^b days
Estrus number [2]: 23
Estrus rate (%) [2]: 85.19^a %
Interval from stopping taking Altrenogest to estrus (days) [2]: 6.07 ± 0.13^b days
Estrus number [3]: 22
Estrus rate (%) [3]: 88.00^a %
Interval from stopping taking Altrenogest to estrus (days) [3]: 6.11 ± 0.12^b days
Estrus number [4]: 21
Estrus rate (%) [4]: 84.00^a %
Interval from stopping taking Altrenogest to estrus (days) [4]: 6.07 ± 0.15^b days
Estrus number [5]: 24
Estrus rate (%) [5]: 92.31^a %
Interval from stopping taking Altrenogest to estrus (days) [5]: 6.19 ± 0.16^b days
Estrus number [6]: 20
Estrus rate (%) [6]: 76.92^b %
Interval from stopping taking Altrenogest to estrus (days) [6]: 6.70 ± 0.16^a days
Estrus number [7]: 22
Estrus rate (%) [7]: 84.61^a %
Interval from stopping taking Altrenogest to estrus (days) [7]: 6.77 ± 0.14^a days
Estrus number [8]: 4
Estrus rate (%) [8]: 16.67^b %
Interval from stopping taking Altrenogest to estrus (days) [8]: 6.25 ± 0.14^b days
Estrus number [9]: 0
Estrus rate (%) [9]: 0.00^b %
Estrus number [10]: 0
Estrus rate (%) [10]: 0.00^b %
Number of estrous animals at different times after stopping Altrenogest (day/animal) (day 4.5, Example 2 Treatment group 1: 12 μg/kg·BW/day orally, 1 day): 0 animal
Number of estrous animals at different times after stopping Altrenogest (day/animal) (day 4.5, Example 2 Treatment group 2: 12 μg/kg·BW/day orally, 2 days): 0 animal
Number of estrous animals at different times after stopping Altrenogest (day/animal) (day 4.5, Example 2 Treatment group 3: 20 μg/kg·BW/day orally, 1 day): 0 animal
Number of estrous animals at different times after stopping Altrenogest (day/animal) (day 4.5, Example 2 Treatment group 4: 20 μg/kg·BW/day orally, 2 days): 0 animal
Number of estrous animals at different times after stopping Altrenogest (day/animal) (day 4.5, Example 2 Treatment group 5: 20 μg/kg·BW/day orally, 3 days): 0 animal
Number of estrous animals at different times after stopping Altrenogest (day/animal) (day 4.5, Example 2 Treatment group 6: 20 μg/kg·BW/day orally, 5 days): 0 animal
Number of estrous animals at different times after stopping Altrenogest (day/animal) (day 4.5, Example 2 Treatment group 7: 40 μg/kg·BW/day orally, 1 day): 0 animal
Number of estrous animals at different times after stopping Altrenogest (day/animal) (day 4.5, Example 2 Treatment group 8: 40 μg/kg·BW/day orally, 5 days): 0 animal
Number of estrous animals at different times after stopping Altrenogest (day/animal) (day 5, Example 2 Treatment group 1: 12 μg/kg·BW/day orally, 1 day): 1 animal
Number of estrous animals at different times after stopping Altrenogest (day/animal) (day 5, Example 2 Treatment group 2: 12 μg/kg·BW/day orally, 2 days): 0 animal
Number of estrous animals at different times after stopping Altrenogest (day/animal) (day 5, Example 2 Treatment group 3: 20 μg/kg·BW/day orally, 1 day): 0 animal
Number of estrous animals at different times after stopping Altrenogest (day/animal) (day 5, Example 2 Treatment group 4: 20 μg/kg·BW/day orally, 2 days): 0 animal
Number of estrous animals at different times after stopping Altrenogest (day/animal) (day 5, Example 2 Treatment group 5: 20 μg/kg·BW/day orally, 3 days): 2 animal
Number of estrous animals at different times after stopping Altrenogest (day/animal) (day 5, Example 2 Treatment group 6: 20 μg/kg·BW/day orally, 5 days): 1 animal
Number of estrous animals at different times after stopping Altrenogest (day/animal) (day 5, Example 2 Treatment group 7: 40 μg/kg·BW/day orally, 1 day): 0 animal
Number of estrous animals at different times after stopping Altrenogest (day/animal) (day 5, Example 2 Treatment group 8: 40 μg/kg·BW/day orally, 5 days): 0 animal
Number of estrous animals at different times after stopping Altrenogest (day/animal) (day 5.5, Example 2 Treatment group 1: 12 μg/kg·BW/day orally, 1 day): 8 animal
Number of estrous animals at different times after stopping Altrenogest (day/animal) (day 5.5, Example 2 Treatment group 2: 12 μg/kg·BW/day orally, 2 days): 9 animal
Number of estrous animals at different times after stopping Altrenogest (day/animal) (day 5.5, Example 2 Treatment group 3: 20 μg/kg·BW/day orally, 1 day): 7 animal
Number of estrous animals at different times after stopping Altrenogest (day/animal) (day 5.5, Example 2 Treatment group 4: 20 μg/kg·BW/day orally, 2 days): 8 animal
